Where two headings read alike, the source gives them in different places.
Tests used:
Format in all cases: binding
[1] = target: T1, HeLa cell extract proteins (Homo sapiens, UniProt P00558)
T1 construct: endogenous in cells; host or cells: HeLa cell extract
T1 sequence (P00558 1-417): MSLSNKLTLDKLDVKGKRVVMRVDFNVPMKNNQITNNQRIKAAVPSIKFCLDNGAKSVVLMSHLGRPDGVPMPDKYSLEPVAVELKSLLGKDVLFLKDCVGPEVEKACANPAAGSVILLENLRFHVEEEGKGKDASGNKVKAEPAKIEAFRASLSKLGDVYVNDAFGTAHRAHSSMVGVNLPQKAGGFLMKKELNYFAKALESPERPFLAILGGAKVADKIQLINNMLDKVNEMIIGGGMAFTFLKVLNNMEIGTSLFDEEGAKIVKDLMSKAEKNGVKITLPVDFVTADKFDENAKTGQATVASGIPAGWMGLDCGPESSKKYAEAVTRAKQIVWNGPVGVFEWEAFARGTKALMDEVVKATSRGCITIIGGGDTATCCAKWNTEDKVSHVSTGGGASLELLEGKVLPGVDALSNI

[2] = target: T2, HeLa cell extract proteins (Homo sapiens, UniProt P49368)
T2 construct: endogenous in cells; host or cells: HeLa cell extract
T2 sequence (P49368 1-545): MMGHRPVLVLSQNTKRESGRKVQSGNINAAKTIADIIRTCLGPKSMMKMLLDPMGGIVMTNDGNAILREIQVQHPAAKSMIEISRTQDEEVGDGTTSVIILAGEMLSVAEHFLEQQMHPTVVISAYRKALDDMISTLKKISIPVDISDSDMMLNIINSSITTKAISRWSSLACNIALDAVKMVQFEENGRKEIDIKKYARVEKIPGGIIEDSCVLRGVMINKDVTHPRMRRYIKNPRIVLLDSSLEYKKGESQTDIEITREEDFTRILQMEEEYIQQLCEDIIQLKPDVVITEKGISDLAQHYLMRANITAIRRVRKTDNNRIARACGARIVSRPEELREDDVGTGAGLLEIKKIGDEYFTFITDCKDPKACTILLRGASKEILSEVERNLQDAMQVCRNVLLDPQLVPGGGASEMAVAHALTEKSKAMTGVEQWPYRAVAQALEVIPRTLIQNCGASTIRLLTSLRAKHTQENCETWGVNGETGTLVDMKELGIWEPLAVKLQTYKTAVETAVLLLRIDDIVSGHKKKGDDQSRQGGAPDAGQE

[3] = target: T3, HeLa cell extract proteins (Homo sapiens, UniProt Q9H2U2)
T3 construct: endogenous in cells; host or cells: HeLa cell extract
T3 sequence (Q9H2U2 33-334): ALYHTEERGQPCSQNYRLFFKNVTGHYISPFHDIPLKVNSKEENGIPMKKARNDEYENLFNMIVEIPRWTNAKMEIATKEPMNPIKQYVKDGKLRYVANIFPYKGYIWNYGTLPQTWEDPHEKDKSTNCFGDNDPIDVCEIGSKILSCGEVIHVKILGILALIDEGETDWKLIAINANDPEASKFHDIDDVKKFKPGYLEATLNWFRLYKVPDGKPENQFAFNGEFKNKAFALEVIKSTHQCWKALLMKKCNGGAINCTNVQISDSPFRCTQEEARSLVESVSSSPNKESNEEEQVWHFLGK

[4] = target: T4, HeLa cell extract proteins (Homo sapiens, UniProt O43324)
T4 construct: endogenous in cells; host or cells: HeLa cell extract
T4 sequence (O43324 1-174): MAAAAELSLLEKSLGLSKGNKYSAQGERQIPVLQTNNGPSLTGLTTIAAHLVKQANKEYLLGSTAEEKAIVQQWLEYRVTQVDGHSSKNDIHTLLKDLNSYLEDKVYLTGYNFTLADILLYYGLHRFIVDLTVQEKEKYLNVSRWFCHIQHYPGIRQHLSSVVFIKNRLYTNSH

[5] = target: T5, HeLa cell extract proteins (Homo sapiens, UniProt P55735)
T5 construct: endogenous in cells; host or cells: HeLa cell extract
T5 sequence (P55735 1-322): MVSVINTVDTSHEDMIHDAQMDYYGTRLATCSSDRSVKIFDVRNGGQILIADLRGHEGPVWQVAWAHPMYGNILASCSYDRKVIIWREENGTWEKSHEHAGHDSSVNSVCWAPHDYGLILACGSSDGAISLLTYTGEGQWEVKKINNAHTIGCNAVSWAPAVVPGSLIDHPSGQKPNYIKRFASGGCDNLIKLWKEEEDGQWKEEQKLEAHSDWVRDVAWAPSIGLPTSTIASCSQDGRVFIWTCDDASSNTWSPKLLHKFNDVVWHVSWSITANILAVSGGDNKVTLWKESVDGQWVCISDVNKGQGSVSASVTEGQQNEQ

[6] = target: T6, HeLa cell extract proteins (Homo sapiens, UniProt P07339)
T6 construct: endogenous in cells; host or cells: HeLa cell extract
T6 sequence (P07339 65-412): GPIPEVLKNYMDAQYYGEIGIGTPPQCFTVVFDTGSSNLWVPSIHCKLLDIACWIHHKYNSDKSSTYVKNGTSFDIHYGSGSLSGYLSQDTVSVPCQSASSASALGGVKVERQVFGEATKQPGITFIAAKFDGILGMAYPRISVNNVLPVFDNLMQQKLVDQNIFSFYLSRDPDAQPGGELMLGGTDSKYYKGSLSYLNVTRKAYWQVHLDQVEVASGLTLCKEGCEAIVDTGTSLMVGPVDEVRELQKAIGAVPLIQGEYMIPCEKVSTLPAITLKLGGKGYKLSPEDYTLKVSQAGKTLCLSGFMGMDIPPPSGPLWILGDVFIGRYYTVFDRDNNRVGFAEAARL

[7] = target: T7, HeLa cell extract proteins (Homo sapiens, UniProt P23528)
T7 construct: endogenous in cells; host or cells: HeLa cell extract
T7 sequence (P23528 whole entry): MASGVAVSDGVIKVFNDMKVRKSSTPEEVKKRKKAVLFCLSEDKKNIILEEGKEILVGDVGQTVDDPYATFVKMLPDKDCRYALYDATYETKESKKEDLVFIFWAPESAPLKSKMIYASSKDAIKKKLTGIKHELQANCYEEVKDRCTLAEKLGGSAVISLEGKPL

[8] = target: T8, HeLa cell extract proteins (Homo sapiens, UniProt P11177)
T8 construct: endogenous in cells; host or cells: HeLa cell extract
T8 sequence (P11177 31-359): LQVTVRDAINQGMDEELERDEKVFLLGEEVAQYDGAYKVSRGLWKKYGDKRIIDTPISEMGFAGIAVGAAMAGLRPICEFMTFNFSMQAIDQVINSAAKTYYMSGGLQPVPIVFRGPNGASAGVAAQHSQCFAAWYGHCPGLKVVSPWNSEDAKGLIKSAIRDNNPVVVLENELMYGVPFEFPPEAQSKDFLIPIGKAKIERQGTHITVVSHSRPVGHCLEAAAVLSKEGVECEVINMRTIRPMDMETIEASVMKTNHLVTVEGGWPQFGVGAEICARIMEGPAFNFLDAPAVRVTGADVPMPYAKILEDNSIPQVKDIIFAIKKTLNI

[9] = target: T9, HeLa cell extract proteins (Homo sapiens, UniProt P63167)
T9 construct: endogenous in cells; host or cells: HeLa cell extract
T9 sequence (P63167 whole entry): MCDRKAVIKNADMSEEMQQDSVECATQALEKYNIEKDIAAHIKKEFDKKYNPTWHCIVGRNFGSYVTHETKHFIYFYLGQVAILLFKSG

[10] = target: T10, HeLa cell extract proteins (Homo sapiens, UniProt Q96QK1)
T10 construct: endogenous in cells; host or cells: HeLa cell extract

[11] = target: T11, HeLa cell extract proteins (Homo sapiens, UniProt Q63HN8)
T11 construct: endogenous in cells; host or cells: HeLa cell extract

[12] = target: T12, HeLa cell extract proteins (Homo sapiens, UniProt P51858)
T12 construct: endogenous in cells; host or cells: HeLa cell extract
T12 sequence (P51858 whole entry): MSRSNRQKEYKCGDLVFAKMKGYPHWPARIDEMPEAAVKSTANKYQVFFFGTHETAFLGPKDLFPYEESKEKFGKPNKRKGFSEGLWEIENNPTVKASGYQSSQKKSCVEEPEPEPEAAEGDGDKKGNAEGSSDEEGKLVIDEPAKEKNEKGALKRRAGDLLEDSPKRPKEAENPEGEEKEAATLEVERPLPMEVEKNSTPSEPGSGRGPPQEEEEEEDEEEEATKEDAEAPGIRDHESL

[13] = target: T13, HeLa cell extract proteins (Homo sapiens, UniProt P68366)
T13 construct: endogenous in cells; host or cells: HeLa cell extract
T13 sequence (P68366 whole entry): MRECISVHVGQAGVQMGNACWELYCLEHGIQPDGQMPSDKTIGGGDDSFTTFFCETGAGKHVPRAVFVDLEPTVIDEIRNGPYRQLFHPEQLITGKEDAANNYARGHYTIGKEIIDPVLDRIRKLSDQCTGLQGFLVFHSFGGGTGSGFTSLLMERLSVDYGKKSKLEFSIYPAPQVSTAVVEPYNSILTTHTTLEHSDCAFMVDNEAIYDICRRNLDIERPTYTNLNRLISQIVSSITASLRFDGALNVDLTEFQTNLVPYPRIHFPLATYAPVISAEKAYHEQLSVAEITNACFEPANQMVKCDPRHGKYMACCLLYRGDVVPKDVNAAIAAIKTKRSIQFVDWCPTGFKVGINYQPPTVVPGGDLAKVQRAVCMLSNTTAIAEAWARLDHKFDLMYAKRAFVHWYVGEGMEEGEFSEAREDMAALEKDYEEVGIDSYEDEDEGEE

[14] = HeLa, protein CFL1 (COFILIN-1.)
[15] = HeLa, protein EEF1E1 (EUKARYOTIC TRANSLATION ELONGATION FACTOR 1 EPSILON-1)
[16] = HeLa, protein PGK1 (PHOSPHOGLYCERATE KINASE 1.)
[17] = HeLa, protein PDHB (ISOFORM 1 OF PYRUVATE DEHYDROGENASE E1 COMPONENT SUBUNIT BETA, MITOCHONDRIAL PRECURSOR)

SMILES | fold changes relative to vehicle control ([2]; protein CCT3, HeLa) | fold changes relative to vehicle control ([3]; protein PPA2, HeLa) | fold changes relative to vehicle control ([4]; protein EEF1E1, HeLa) | fold changes relative to vehicle control ([5]; HeLa, protein SEC13) | fold changes relative to vehicle control ([6]; protein CTSD, HeLa) | fold changes relative to vehicle control [7, 14] [fold] | fold changes relative to vehicle control ([8]; protein PDHB, HeLa) | fold changes relative to vehicle control ([9]; protein DYNLL1, HeLa) | fold changes relative to vehicle control ([10]; protein VPS35, HeLa) | fold changes relative to vehicle control ([11]; protein KIAA1618, HeLa) | fold changes relative to vehicle control ([12]; protein HDGF, HeLa) | fold changes relative to vehicle control ([13]; captured protein TUBA4A, HeLa) | fold changes relative to vehicle control ([1]; HeLa, protein PGK1) | fold changes relative to vehicle control ([3]; HeLa, protein PPA2) | fold changes relative to vehicle control ([5]; HeLa, captured protein SEC13) | fold changes relative to vehicle control ([6]; HeLa, captured protein CTSD) | fold changes relative to vehicle control ([7]; protein CFL1, HeLa) | fold changes relative to vehicle control ([9]; HeLa, captured protein DYNLL1) | fold changes relative to vehicle control ([10]; HeLa, protein VPS35) | fold changes relative to vehicle control ([11]; HeLa, protein KIAA1618) | also measured
Nc1nc2cccc(-c3ccccc3)c2n1Cc1ccc(Cl)c(Cl)c1 [compound 3] | 1.06 | 0.97 | 1.12 | 0.95 | 0.95 | 0.82 | 0.99 | 0.96 | 0.96 | 1.04 | 0.9 | 1.01 | – | – | – | – | – | – | – | – | fold changes relative to vehicle control ([1]; HeLa, protein PGK1 (PHOSPH[…] 1.)): 0.8 fold
Nc1nc2[nH]cc(CCc3ccc(C(=O)N[C@@H](CCC(=O)O)C(=O)O)cc3)c2c(=O)[nH]1 [PTX, pemetrexed] | – | – | – | – | – | – | – | – | – | – | – | – | – | – | – | – | – | – | – | – | fold changes relative to vehicle control [1]: 1.11; fold changes relative to vehicle control [2]: 1; fold changes relative to vehicle control [3]: 1.05; fold changes relative to vehicle control [4]: 0.89; fold changes relative to vehicle control [5]: 0.92; fold changes relative to vehicle control [6]: 1; fold changes relative to vehicle control [7]: 0.79; fold changes relative to vehicle control [8]: 0.92; fold changes relative to vehicle control [9]: 1.06; fold changes relative to vehicle control [10]: 1.05; fold changes relative to vehicle control [11]: 1.01; fold changes relative to vehicle control [12]: 1.21; fold changes relative to vehicle control [13]: 0.83
Nc1nc2c(c(=O)[nH]1)N(C=O)C(CNc1ccc(C(=O)N[C@@H](CCC(=O)O)C(=O)O)cc1)CN2 (stereo partly shown) [LEU, leucovorin] | 0.88 | – | – | – | – | – | – | – | – | – | – | – | 1.1 | 1.16 | 1.02 | 0.96 | 0.76 | 1.05 | 0.91 | 0.87 | fold changes relative to vehicle control [4, 15]: 0.84; fold changes relative to vehicle control ([8]; HeLa, protein PDHB (ISOFORM 1 OF PYRUVATE DEHYDROGENASE E1 COMPONENT SUBUNIT BETA, MIT[…])): 1.01; fold changes relative to vehicle control ([12]; HeLa, protein HDGF): 1.06; fold changes relative to vehicle control ([13]; HeLa, protein TUBA4A): 0.9
CCCCCCOc1cccc(Cc2cnc(N)nc2N)c1 [compound 2] | 1.72 | 1.59 | 1.19 | 0.86 | 1.26 | 2.02 | 0.38 | 1.05 | 1.7 | 0.95 | 2.45 | 0.88 | – | – | – | – | – | – | – | – | fold changes relative to vehicle control [1, 16]: 2.59 fold
NCCOCCOCC(=O)Nc1nc2ncc(CNc3ccc(C(=O)NC(CCC(=O)O)C(=O)O)cc3)nc2c(=O)[nH]1 (stereo not shown) [compound 6] | 1.16 | – | – | – | – | – | – | – | – | – | – | – | 1.28 | 1.24 | 0.86 | 1.12 | 0.89 | 1.14 | 1.15 | 1.21 | fold changes relative to vehicle control [4]: 1.02; fold changes relative to vehicle control [8, 17]: 0.87; fold changes relative to vehicle control ([12]; HeLa, protein HDGF): 1.31; fold changes relative to vehicle control ([13]; HeLa, protein TUBA4A): 0.98
CCCCCCOc1ccc(Cc2cnc(N)nc2N)cc1 [compound 1] | 1.22 | 1.04 | 0.9 | 0.93 | 1.14 | 1.27 | 0.97 | 1.08 | 1.13 | 0.98 | 1.26 | 0.95 | – | – | – | – | – | – | – | – | fold changes relative to vehicle control [1, 16]: 1.5 fold
NCCCNc1ccc(C(=O)NC(CCC(=O)O)C(=O)O)cc1 (stereo not shown) [compound 7] | 1 | – | – | – | – | – | – | – | – | – | – | – | 0.92 | 1.02 | 0.98 | 0.96 | 0.69 | 1.18 | 1.1 | 1 | fold changes relative to vehicle control [4, 15]: 0.98; fold changes relative to vehicle control [8, 17]: 0.92; fold changes relative to vehicle control ([12]; HeLa, protein HDGF): 0.97; fold changes relative to vehicle control ([13]; HeLa, protein TUBA4A): 0.99

Source: article PMC6199744, “Development of Chemical Proteomics for the Folateome and Analysis of the Kinetoplastid Folateome” (ACS Infectious Diseases, 2018)
